According to ChEMBL document CHEMBL5528035, “Design, Synthesis, and Biological Evaluation for First GPX4 and CDK Dual Inhibitors” (J Med Chem, 2024):
Active and inactive are the calls of the source. The rule behind the calls is not given here.

What was measured:
[1] = target: CDK6/cyclin D3 (Homo sapiens) (UniProt P30281+Q00534); assay: Inhibition of CDK6/CyclinD3 (unknown origin) at 100 nM preincubated for 15 mins followed by substrate and ATP addition incubated for 10 mins by ADP-glo luminescent assay relative to control; format: protein-complex assay; details: time 25.0 min
HCT-116 [2] = assay: cells; details: Homo sapiens, HCT-116, 48 h
Description: Antiproliferative activity against human HCT-116 cells assessed as inhibition of cell growth incubated for 48 hrs by CCK-8 assay

MDA-MB-231 [3] = assay: cells; details: Homo sapiens, MDA-MB-231, 48 h
Description: Antiproliferative activity against human MDA-MB-231 cells assessed as inhibition of cell growth incubated for 48 hrs by CCK-8 assay

[4] = target: CDK2/Cyclin A2 (Homo sapiens) (UniProt P24941+P20248); assay: Inhibition of CDK2/CyclinA2 (unknown origin) at 100 nM preincubated for 15 mins followed by substrate and ATP addition incubated for 10 mins by ADP-glo luminescent assay relative to control; format: protein-complex assay; details: time 25.0 min
A549 = assay: cells; details: Homo sapiens, A549, 48 h
Description: Antiproliferative activity against human A549 cells assessed as inhibition of cell growth incubated for 48 hrs by CCK-8 assay

HepG2 = assay: cells; details: Homo sapiens, HepG2, 48 h
Description: Antiproliferative activity against human HepG2 cells assessed as inhibition of cell growth incubated for 48 hrs by CCK-8 assay

[5] = Intrinsic clearance in human liver microsomes in presence of NADPH incubated for 5 to 45 mins by LC/MS analysis; format: ADME, Microsome; details: time 5-45 min, read-out: CLH
[6] = MRT (0 to t) in Sprague-Dawley rat at 10 mg/kg,iv administration measured upto 24 hrs by LC-MS/MS analysis; format: ADME, organism-based; details: in vivo
HCT-116 [7] = assay: Induction of cell cycle arrest in human HCT-116 cells assessed as accumulation of cells at G2 phase at 10 uM incubated for 24 hrs by RNase/PI staining based flow cytometric analysis; format: functional
[8] = Clearance in Sprague-Dawley rat at 10 mg/kg,iv administration measured upto 24 hrs by LC-MS/MS analysis; format: ADME, organism-based; details: in vivo
[9] = Half life in human liver microsomes in presence of NADPH incubated for 5 to 45 mins by LC/MS analysis; format: ADME, Microsome; details: time 5-45 min
MDA-MB-231 [10] = assay: Induction of cell cycle arrest in human MDA-MB-231 cells assessed as accumulation of cells at G1 phase at 10 uM incubated for 24 hrs by RNase/PI staining based flow cytometric analysis; format: functional
[11] = Tmax in Sprague-Dawley rat at 10 mg/kg,iv administration measured upto 24 hrs by LC-MS/MS analysis; format: ADME, organism-based; details: in vivo
[12] = AUC (0 to t) in Sprague-Dawley rat at 10 mg/kg,iv administration measured upto 24 hrs by LC-MS/MS analysis; format: ADME, organism-based; details: in vivo
HCT-116 [13] = assay: Induction of cell cycle arrest in human HCT-116 cells assessed as accumulation of cells at G1 phase at 10 uM incubated for 24 hrs by RNase/PI staining based flow cytometric analysis; format: functional
[14] = Cmax in Sprague-Dawley rat at 10 mg/kg,iv administration measured upto 24 hrs by LC-MS/MS analysis; format: ADME, organism-based; details: in vivo
MDA-MB-231 [15] = assay: Antitumor activity against human MDA-MB-231 cells xenografted in BALB/c mouse assessed as tumor growth inhibition at 40 mg/kg,ip administrated for 21 consecutive days; format: functional; details: read-out: TGI
MDA-MB-231 [16] = assay: Induction of cell cycle arrest in human MDA-MB-231 cells assessed as accumulation of cells at G2 phase at 10 uM incubated for 24 hrs by RNase/PI staining based flow cytometric analysis; format: functional
[17] = Half life in Sprague-Dawley rat at 10 mg/kg,iv administration measured upto 24 hrs by LC-MS/MS analysis; format: ADME, organism-based; details: in vivo

SMILES | inhibition [1] [%] | IC50 (HCT-116 [2]) [µM] | IC50 (MDA-MB-231 [3]) [µM] | inhibition [4] [%] | IC50 (A549) [µM] | IC50 (HepG2) [µM] | CLint scaled [5] [mL/min/kg] | MRT last at 24 h [6] [h] | Activity (HCT-116 [7]) | clearance [8] [mL/min/kg] | half-life [9] [h] | Activity (MDA-MB-231 [10]) | Tmax [11] [h] | AUC(0-t) at 24 h [12] [ng·h/mL] | Activity (HCT-116 [13]) | Cmax [14] [ng/mL] | inhibition in vivo at 40 mg/kg (MDA-MB-231 [15]) [%] | Activity (MDA-MB-231 [16]) | half-life [17] [h]
O=C(CCn1cc(COc2ccc(N(C(=O)CCl)C(C(=O)NCCc3ccccc3)c3cccs3)cc2Cl)nn1)O/N=C1/C(=C2/C(=O)Nc3ccccc32)Nc2cc(F)ccc21 (stereo not drawn) | 29.7 | 6.81 | 7.12 | 9.85 | 6.69 | 8.19 |  |  |  |  |  |  |  |  |  |  |  |  | 
O=C1Nc2ccccc2/C1=C1/Nc2ccccc2/C1=N\O | 51.1 | 4.22 | 5.16 | 40.3 | 4.04 | 5.66 | 55.2 | 2.7 | Active | 12.8 | 0.483 | Active | 0.8 | 12900 | Active | 8730 | 59.4 | Active | 3.8
O=C(CCn1cc(COc2ccc(N(C(=O)CCl)C(C(=O)NCCc3ccccc3)c3cccs3)cc2Cl)nn1)NCCCO/N=C1/C(=C2/C(=O)Nc3cc(F)c(F)cc32)Nc2ccccc21 (stereo not drawn) | 16.1 | 9.63 | > 10 | 1.12 | 8.32 | > 10 |  |  |  |  |  |  |  |  |  |  |  |  | 
O=C(CCn1cc(COc2ccc(N(C(=O)CCl)C(C(=O)NCCc3ccccc3)c3cccs3)cc2Cl)nn1)O/N=C1/C(=C2/C(=O)Nc3ccccc32)Nc2cc(Br)c(Br)cc21 (stereo not drawn) | 9.29 | > 10 | > 10 | 1.46 | > 10 | > 10 |  |  |  |  |  |  |  |  |  |  |  |  | 
COc1ccc(N(C(=O)CCl)C(C(=O)NCCc2ccccc2)c2cccs2)cc1Cl (stereo not drawn) |  | 4.14 | 2.27 |  | 2.09 | 3.71 | 2680 | 1.8 |  | 20.8 | 0.01 |  | 0.8 | 8020 |  | 8530 | 60.9 |  | 1.7
O=C(CCn1cc(COc2ccc(N(C(=O)CCl)C(C(=O)NCCc3ccccc3)c3cccs3)cc2Cl)nn1)O/N=C1/C(=C2/C(=O)Nc3ccccc32)Nc2cc(F)c(F)cc21 (stereo not drawn) | 24.4 | > 10 | > 10 | 10.5 | > 10 | > 10 |  |  |  |  |  |  |  |  |  |  |  |  | 
O=C(CCn1cc(COc2ccc(N(C(=O)CCl)C(C(=O)NCCc3ccccc3)c3cccs3)cc2Cl)nn1)O/N=C1/C(=C2/C(=O)Nc3ccccc32)Nc2ccc(Cl)cc21 (stereo not drawn) | 40.4 | 4.44 | 5.25 | 13.5 | 5.15 | 7.16 |  |  |  |  |  |  |  |  |  |  |  |  | 
O=C(CCn1cc(COc2ccc(N(C(=O)CCl)C(C(=O)NCCc3ccccc3)c3cccs3)cc2Cl)nn1)O/N=C1/C(=C2/C(=O)Nc3ccccc32)Nc2ccccc21 (stereo not drawn) | 46.3 | 7.45 | 7.89 | 8.89 | 7.72 | 8.18 |  |  |  |  |  |  |  |  |  |  |  |  | 
COc1ccc2c(c1)NC(=C1\C(=O)Nc3ccccc31)/C2=N/OC(=O)CCn1cc(COc2ccc(N(C(=O)CCl)C(C(=O)NCCc3ccccc3)c3cccs3)cc2Cl)nn1 (stereo not drawn) | 47 | 4.03 | 3.88 | 12.6 | 4.6 | 7.88 |  |  |  |  |  |  |  |  |  |  |  |  | 
O=C(CCn1cc(COc2ccc(N(C(=O)CCl)C(C(=O)NCCc3ccccc3)c3cccs3)cc2Cl)nn1)O/N=C1/C(=C2/C(=O)Nc3ccccc32)Nc2cc(Cl)ccc21 (stereo not drawn) | 37.1 | 7.32 | 7.78 | 8.53 | 6.27 | 7.51 |  |  |  |  |  |  |  |  |  |  |  |  | 
O=C(CCn1cc(COc2ccc(N(C(=O)CCl)C(C(=O)NCCc3ccccc3)c3cccs3)cc2Cl)nn1)O/N=C1/C(=C2/C(=O)Nc3ccccc32)Nc2cc(Br)ccc21 (stereo not drawn) | 14.7 | > 10 | > 10 | 5.41 | > 10 | > 10 |  |  |  |  |  |  |  |  |  |  |  |  | 
O=C(CCn1cc(COc2ccc(N(C(=O)CCl)C(C(=O)NCCc3ccccc3)c3cccs3)cc2Cl)nn1)NCCCO/N=C1/C(=C2/C(=O)Nc3cc(Br)ccc32)Nc2ccccc21 (stereo not drawn) | 28.3 | > 10 | 8.69 | 22.4 | > 10 | > 10 |  |  |  |  |  |  |  |  |  |  |  |  | 
O=C(CCn1cc(COc2ccc(N(C(=O)CCl)C(C(=O)NCCc3ccccc3)c3cccs3)cc2Cl)nn1)NCCCO/N=C1/C(=C2/C(=O)Nc3cc(Cl)c(Cl)cc32)Nc2ccccc21 (stereo not drawn) | 12.8 | > 10 | > 10 | 14 | > 10 | > 10 |  |  |  |  |  |  |  |  |  |  |  |  | 
